The values that follow come from patent US12503436B2, “Compounds and compositions for treating conditions associated with STING activity” (NOVARTIS PHARMA AG, priority 2021, dated 2025).

As usually defined, the EC50 is the midpoint of the concentration-response curve.

STING, sequence (Q86WV6 whole entry R71H/G230A/H232R/R293Q): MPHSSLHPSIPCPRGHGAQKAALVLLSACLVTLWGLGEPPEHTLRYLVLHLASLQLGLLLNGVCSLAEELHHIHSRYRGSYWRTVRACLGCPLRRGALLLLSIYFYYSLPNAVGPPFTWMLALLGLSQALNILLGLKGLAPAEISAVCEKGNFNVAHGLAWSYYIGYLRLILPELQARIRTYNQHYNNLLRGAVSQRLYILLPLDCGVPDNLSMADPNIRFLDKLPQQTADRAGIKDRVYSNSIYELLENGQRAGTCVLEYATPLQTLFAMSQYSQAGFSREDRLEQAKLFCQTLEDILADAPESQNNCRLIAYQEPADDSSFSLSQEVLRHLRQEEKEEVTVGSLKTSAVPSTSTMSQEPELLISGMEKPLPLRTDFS

This assay concerns the target STING (Homo sapiens, UniProt Q86WV6, G230A/H232R/R293Q/R71H). Briefly: STING reporter assay in THP1-Dual KO-IFNAR2 cells (2′3′cGAMP stimulation, luciferase reporter). The assay is classed as cell-based. As to conditions: 15 μM 2′3′cGAMP stimulation, 24 h, read-out: Pharmaron, THP1_IFNAR2 STING 24 h Luci Normalized: GeoMean EC50. The essentials: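 EC50 from secreted luciferase (QUANTI-Luc Plus luminescence of supernatant) after 24 h at 37 °C, 5% CO2. Cells: THP1-Dual KO-IFNAR2, treated with compound (0.0017-100 μM final) plus lipofected 2′3′cGAMP at 15 μM final.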
(In general: Reporter assays use an easily measured gene product as a stand-in for the process of interest.)
Take `CC1(C(=O)Nc2c[nH]c3ccc(OCC[C@@H]4C[C@@H]5CN(CC(F)(F)F)C[C@@H]5C4)cc23)CCOC1` (stereo partly drawn) [Compound 306, 3-methyl-N-(5-(2-((3aR,5r,6aS)-2-(2,2,2-trifluoroethyl)octahydrocyclopenta[c]pyrrol-5-yl)ethoxy)-1H-indol-3-yl)tetrahydrofuran-3-carboxamide]: the concentration for a half-maximal effect (EC50) was 0.2 to 1 µM.

Turning to `CC(=O)Nc1c[nH]c2ccc(CCOc3cccc(C(F)(F)F)c3)cc12` [Compound 231, N-(5-(2-(3-(trifluoromethyl)phenoxy)ethyl)-1H-indol-3-yl)acetamide], the EC50 fell in the range of 0.2 to 1 µM. For `CC(C)(O)CC(=O)Nc1c[nH]c2ccc(OCCC3CCN(CC(F)(F)F)CC3)cc12` [Compound 118, 3-hydroxy-3-methyl-N-(5-(2-(1-(2,2,2-trifluoroethyl)piperidin-4-yl)ethoxy)-1H-indol-3-yl)butanamide] the value was 0.2 to 1 µM. For `COC1CC(C(=O)Nc2c[nH]c3ccc(OCC[C@@H]4C[C@@H]5CN(CC(F)(F)F)C[C@@H]5C4)cc23)C1` (stereo partly drawn) [Compound 345, 3-methoxy-N-(5-(2-((3aR,5r,6aS)-2-(2,2,2-trifluoroethyl)octahydrocyclopenta[c]pyrrol-5-yl)ethoxy)-1H-indol-3-yl)cyclobutane-1-carboxamide] the value was 0.2 to 1 µM. For `O=C(Nc1c[nH]c2ccc(O[C@H]3C[C@@H](c4ccc(C(F)(F)F)nc4)C3)cc12)[C@H]1C[C@H](CO)C1` [Compound 551, trans-3-(hydroxymethyl)-N-(5-(cis-3-(6-(trifluoromethyl)pyridin-3-yl)cyclobutoxy)-1H-indol-3-yl)cyclobutane-1-carboxamide] the value was 0.2 to 1 µM; for `C[C@]1(C(=O)Nc2c[nH]c3ccc(OCc4ccc(C(F)(F)F)cc4)cc23)CC[C@@H](O)CC1` [Compound 419, trans-4-hydroxy-1-methyl-N-(5-((4-(trifluoromethyl)benzyl)oxy)-1H-indol-3-yl)cyclohexane-1-carboxamide], 0.2 to 1 µM; for `C[C@H]1C[C@H](C(=O)Nc2c[nH]c3ccc(OCc4ccc(C(F)(F)F)cc4)cc23)C1` [Compound 320, trans-3-methyl-N-(5-((4-(trifluoromethyl)benzyl)oxy)-1H-indol-3-yl)cyclobutane-1-carboxamide], 0.2 to 1 µM.

Take `O=C(Nc1c[nH]c2ccc(CC(O)Cc3ccc(C(F)(F)F)cc3)cc12)C1CC1` (single isomer, unassigned) [Compound 200, N-(5-(2-hydroxy-3-(4-(trifluoromethyl)phenyl)propyl)-1H-indol-3-yl)cyclopropanecarboxamide]: the concentration for a half-maximal effect (EC50) was in the range of 0.2 to 1 µM. For `CC[C@H](O)C(=O)Nc1c[nH]c2ccc(OCC[C@@H]3C[C@@H]4CN(CC(F)(F)F)C[C@@H]4C3)cc12` [Compound 521, (S)-2-hydroxy-N-(5-(2-((3aR,5r,6aS)-2-(2,2,2-trifluoroethyl)octahydrocyclopenta[c]pyrrol-5-yl)ethoxy)-1H-indol-3-yl)butanamide] the value was 0.2 to 1 µM.

For `COCCc1ccc(OCCc2ccc3[nH]cc(NC(C)=O)c3c2)cc1` [Compound 461, N-(5-{2-[4-(2-methoxyethyl)phenoxy]ethyl}-1H-indol-3-yl)acetamide], the EC50 lay in the range of 0.2 to 1 µM. For `C[C@]1(C(=O)Nc2c[nH]c3ccc(OCc4ccc(C(F)(F)F)cc4)cc23)C[C@@H](CO)C1` [Compound 417, trans-3-(hydroxymethyl)-1-methyl-N-(5-((4-(trifluoromethyl)benzyl)oxy)-1H-indol-3-yl)cyclobutane-1-carboxamide], the EC50 was 0.2 to 1 µM. For `CC(C)(C)CC(=O)Nc1c[nH]c2ccc(CCOc3ccc(C(F)(F)F)cc3)cc12` [Compound 591, 3,3-dimethyl-N-(5-(2-(4-(trifluoromethyl)phenoxy)ethyl)-1H-indol-3-yl)butanamide] the value was 0.2 to 1 µM; for `O=C(Nc1c[nH]c2ccc(CCCn3cc(C(F)(F)F)cn3)cc12)C1CC1` [Compound 384, N-(5-(3-(4-(trifluoromethyl)-1H-pyrazol-1-yl)propyl)-1H-indol-3-yl)cyclopropanecarboxamide], 0.2 to 1 µM; for `CC1(C(=O)Nc2c[nH]c3ccc(OCC[C@@H]4C[C@@H]5CN(CC(F)(F)F)C[C@@H]5C4)cc23)CC1` [Compound 379, 1-methyl-N-(5-(2-((3aR,5r,6aS)-2-(2,2,2-trifluoroethyl)octahydrocyclopenta[c]pyrrol-5-yl)ethoxy)-1H-indol-3-yl)cyclopropane-1-carboxamide], 0.2 to 1 µM. For `CC(=O)Nc1c[nH]c2ccc(CCC[C@@H]3C[C@@H]4CN(CC(F)(F)F)C[C@@H]4C3)cc12` [Compound 539, N-(5-(3-((3aR,5r,6aS)-2-(2,2,2-trifluoroethyl)octahydrocyclopenta[c]pyrrol-5-yl)propyl)-1H-indol-3-yl)acetamide] the value was 1 to 5 µM; for `CC1(C(=O)Nc2c[nH]c3ccc(OCCc4ccc(C(F)(F)F)cc4)cc23)CN(CC(F)F)C1` [Compound 561, 1-(2,2-difluoroethyl)-3-methyl-N-(5-(4-(trifluoromethyl)phenethoxy)-1H-indol-3-yl)azetidine-3-carboxamide], 0.04 to 0.2 µM; for `O=C(Nc1c[nH]c2ccc(OCc3ccc(C(F)(F)F)cc3)cc12)C1CC(CO)C1` (centres unmarked) [Compound 153, 3-(hydroxymethyl)-N-(5-((4-(trifluoromethyl)benzyl)oxy)-1H-indol-3-yl)cyclobutane-1-carboxamide], 0.2 to 1 µM.

As for `CC1(C)CC(C(=O)Nc2c[nH]c3ccc(O[C@H]4C[C@@H](c5ccc(C(F)(F)F)cc5)C4)cc23)C1` [Compound 361, 3,3-dimethyl-N-(5-(cis-3-(4-(trifluoromethyl)phenyl)cyclobutoxy)-1H-indol-3-yl)cyclobutane-1-carboxamide], the half-maximal effective concentration (EC50) was 0.04 to 0.2 µM. Consider `CO[C@H]1C[C@H](C(=O)Nc2c[nH]c3ccc(CCOc4ccc(C(F)(F)F)cc4)cc23)C1` [Compound 220, trans-3-methoxy-N-(5-(2-(4-(trifluoromethyl)phenoxy)ethyl)-1H-indol-3-yl)cyclobutane-1-carboxamide], for which the 50% effective concentration (EC50) lay in the range of 0.04 to 0.2 µM. Consider `CO[C@H]1C[C@@H](C(=O)Nc2c[nH]c3ccc(O[C@H]4C[C@@H](c5ccc(C(F)(F)F)cc5)C4)cc23)C1` [Compound 245, cis-3-methoxy-N-(5-(cis-3-(4-(trifluoromethyl)phenyl)cyclobutoxy)-1H-indol-3-yl)cyclobutane-1-carboxamide], for which the EC50 fell in the range of 0.04 to 0.2 µM.

`O=C(Nc1c[nH]c2ccc(/C=C/c3ccc(C(F)(F)F)cc3)cc12)C1CCC1` [Compound 144, (E)-N-(5-(4-(trifluoromethyl)styryl)-1H-indol-3-yl)cyclobutanecarboxamide]: the half-maximal effective concentration (EC50) fell in the range of 5 to 100 µM. For `N#CC1CCC1C(=O)Nc1c[nH]c2ccc(CCOc3ccc(C(F)(F)F)cc3)cc12` (centres unmarked) [Compound 390, 2-cyano-N-(5-(2-(4-(trifluoromethyl)phenoxy)ethyl)-1H-indol-3-yl)cyclobutane-1-carboxamide] the value was 0.2 to 1 µM. Turning to `CN1CC(C(=O)Nc2c[nH]c3ccc(CCOc4ccc(C(F)(F)F)cc4)cc23)C1` [Compound 590, 1-methyl-N-(5-(2-(4-(trifluoromethyl)phenoxy)ethyl)-1H-indol-3-yl)azetidine-3-carboxamide], the concentration giving a half-maximal response (EC50) was 1 to 5 µM. Regarding `O=C(Nc1c[nH]c2ccc(OCCc3cnc(N4CCC(F)(F)CC4)c(F)c3)cc12)C1CC1` [Compound 183, N-(5-(2-(6-(4,4-difluoropiperidin-1-yl)-5-fluoropyridin-3-yl)ethoxy)-1H-indol-3-yl)cyclopropanecarboxamide], the EC50 lay in the range of 0.2 to 1 µM. For `CC(=O)Nc1c[nH]c2c(C)cc(CCOc3ccc(C(F)(F)F)cc3)nc12` [Compound 259, N-(7-methyl-5-(2-(4-(trifluoromethyl)phenoxy)ethyl)-1H-pyrrolo[3,2-b]pyridin-3-yl)acetamide] the value was 1 to 5 µM; for `CC(=O)Nc1c[nH]c2ccc(COCC34CC(CN3CC(F)(F)F)C4)cc12` [Compound 492, N-(5-(((2-(2,2,2-trifluoroethyl)-2-azabicyclo[2.1.1]hexan-1-yl)methoxy)methyl)-1H-indol-3-yl)acetamide], 5 to 100 µM. For `CC(=O)Nc1c[nH]c2ccc(OCCC3(O)CCC(F)(F)CC3)cc12` [Compound 278, N-(5-(2-(4,4-difluoro-1-hydroxycyclohexyl)ethoxy)-1H-indol-3-yl)acetamide] the value was 5 to 100 µM. As to `CC(=O)Nc1c[nH]c2ccc(CC(Cc3ccc(C(F)(F)F)cc3)C(=O)O)cc12` (centres unmarked) [Compound 532, 3-(3-acetamido-1H-indol-5-yl)-2-(4-(trifluoromethyl)benzyl)propanoic acid], the concentration giving a half-maximal response (EC50) lay within 5 to 100 µM.

For the compound `O=C(Nc1c[nH]c2ccc(OCC[C@@H]3C[C@@H]4CN(CC(F)(F)F)C[C@@H]4C3)cc12)C1CCOCC1` [Compound 152, N-(5-{2-[(3aR,5S,6aS)-2-(2,2,2-trifluoroethyl)-octahydrocyclopenta[c]pyrrol-5-yl]ethoxy}-1H-indol-3-yl)oxane-4-carboxamide], the EC50 lay within 0.2 to 1 µM. For `CC(=O)Nc1c[nH]c2ccc(CCOc3ccc4c(c3)N(Cc3ccccc3)C(=O)CS4)cc12` [Compound 386, N-(5-(2-((4-benzyl-3-oxo-3,4-dihydro-2H-benzo[b][1,4]thiazin-6-yl)oxy)ethyl)-1H-indol-3-yl)acetamide], the concentration giving a half-maximal response (EC50) fell in the range of 1 to 5 µM.

With `C[C@]1(C(=O)Nc2c[nH]c3ccc(OCC[C@@H]4C[C@@H]5CN(CC(F)(F)F)C[C@@H]5C4)cc23)C[C@@H](O)C1` [Compound 513, (1s,3S)-3-hydroxy-1-methyl-N-(5-(2-((3aR,5r,6aS)-2-(2,2,2-trifluoroethyl)octahydrocyclopenta[c]pyrrol-5-yl)ethoxy)-1H-indol-3-yl)cyclobutane-1-carboxamide], the concentration for a half-maximal effect (EC50) fell in the range of 0.2 to 1 µM. For `CC(=O)Nc1c[nH]c2ccc(OCC[C@H]3CC[C@@H](C(F)(F)F)CC3)cc12` (single isomer, unassigned) [Compound 454, N-(5-(2-(cis-4-(trifluoromethyl)cyclohexyl)ethoxy)-1H-indol-3-yl)acetamide] the value was 0.2 to 1 µM.
